Data taken from article PMC3681809 (Cancer cell, 2013).

Target: EZH1 (Homo sapiens, UniProt Q92800)
Assay: histone methyltransferase selectivity assay
Format: biochemical

Sequence of EZH1 (Q92800 whole entry): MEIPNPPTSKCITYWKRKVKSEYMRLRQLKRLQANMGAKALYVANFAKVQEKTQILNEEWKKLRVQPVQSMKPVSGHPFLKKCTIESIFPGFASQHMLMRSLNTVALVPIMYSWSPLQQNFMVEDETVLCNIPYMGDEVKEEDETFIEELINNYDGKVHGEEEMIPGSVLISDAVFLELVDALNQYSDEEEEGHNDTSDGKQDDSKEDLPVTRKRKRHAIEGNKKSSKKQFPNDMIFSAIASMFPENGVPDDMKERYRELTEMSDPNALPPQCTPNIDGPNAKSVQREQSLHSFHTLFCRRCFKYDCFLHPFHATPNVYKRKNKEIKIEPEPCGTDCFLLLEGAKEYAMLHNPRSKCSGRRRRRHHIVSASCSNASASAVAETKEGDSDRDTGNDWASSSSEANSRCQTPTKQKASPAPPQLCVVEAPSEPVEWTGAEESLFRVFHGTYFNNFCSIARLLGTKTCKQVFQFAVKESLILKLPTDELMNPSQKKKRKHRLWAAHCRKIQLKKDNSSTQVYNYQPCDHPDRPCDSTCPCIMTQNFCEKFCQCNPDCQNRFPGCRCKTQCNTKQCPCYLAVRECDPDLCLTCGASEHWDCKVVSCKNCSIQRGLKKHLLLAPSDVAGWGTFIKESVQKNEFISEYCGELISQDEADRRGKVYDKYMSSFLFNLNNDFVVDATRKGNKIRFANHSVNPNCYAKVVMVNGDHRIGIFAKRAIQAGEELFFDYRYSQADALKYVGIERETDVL
Sequence of EZH1 (O75530 2-441 partner): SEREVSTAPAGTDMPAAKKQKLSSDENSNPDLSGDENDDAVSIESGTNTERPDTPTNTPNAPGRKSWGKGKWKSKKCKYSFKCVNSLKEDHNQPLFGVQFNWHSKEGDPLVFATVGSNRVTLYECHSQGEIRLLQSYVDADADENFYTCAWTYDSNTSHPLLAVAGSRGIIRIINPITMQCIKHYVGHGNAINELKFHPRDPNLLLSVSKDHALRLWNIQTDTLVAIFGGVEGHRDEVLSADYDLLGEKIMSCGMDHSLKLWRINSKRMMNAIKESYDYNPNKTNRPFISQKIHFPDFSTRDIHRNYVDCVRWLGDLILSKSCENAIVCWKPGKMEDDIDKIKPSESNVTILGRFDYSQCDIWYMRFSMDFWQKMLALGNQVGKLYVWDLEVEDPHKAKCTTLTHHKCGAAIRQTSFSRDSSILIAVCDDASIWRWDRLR
Sequence of EZH1 (Q15022 whole entry partner): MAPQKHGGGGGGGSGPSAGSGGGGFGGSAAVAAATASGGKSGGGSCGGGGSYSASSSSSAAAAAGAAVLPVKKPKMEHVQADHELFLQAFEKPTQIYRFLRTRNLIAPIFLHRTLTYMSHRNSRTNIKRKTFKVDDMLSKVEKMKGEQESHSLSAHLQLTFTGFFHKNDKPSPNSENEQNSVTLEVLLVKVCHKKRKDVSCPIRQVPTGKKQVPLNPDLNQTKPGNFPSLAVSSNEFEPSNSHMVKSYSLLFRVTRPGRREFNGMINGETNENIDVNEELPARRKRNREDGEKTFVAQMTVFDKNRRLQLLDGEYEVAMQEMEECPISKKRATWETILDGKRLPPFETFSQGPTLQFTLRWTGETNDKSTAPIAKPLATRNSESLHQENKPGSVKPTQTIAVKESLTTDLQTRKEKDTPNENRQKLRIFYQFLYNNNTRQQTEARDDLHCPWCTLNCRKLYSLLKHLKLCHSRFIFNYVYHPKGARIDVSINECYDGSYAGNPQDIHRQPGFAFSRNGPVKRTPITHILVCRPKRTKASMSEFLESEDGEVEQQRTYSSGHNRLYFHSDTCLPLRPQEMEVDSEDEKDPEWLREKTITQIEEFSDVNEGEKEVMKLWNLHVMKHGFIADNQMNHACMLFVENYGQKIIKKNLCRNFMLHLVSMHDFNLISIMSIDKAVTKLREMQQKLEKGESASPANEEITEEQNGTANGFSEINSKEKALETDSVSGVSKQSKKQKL

SMILES: Cc1cc(C)c(CNC(=O)c2cc(-c3ccc(N4CCN(C)CC4)nc3)cc3c2c(C)cn3C(C)C)c(=O)[nH]1 [GSK503]
- Ki: 636 nM
